Source: patent US20260151400A1, “USE OF ANTAGONISTS OF NEUROKININ-1 RECEPTOR AND NUCLEOSIDE ANALOGS FOR THE TREATMENT OF HERPESVIRIDAE” (THE REGENTS OF THE UNIVERSITY OF COLORADO, a body corporate, priority 2022, published 2026)

Assays:
[1] = test system: uninfected HA-sp (primary human spinal astrocytes); details: aprepitant tested at 1-100 μM, data not shown
Experimental: After 24 hours, medium was changed to basal astrocyte medium containing 0.1% FBS and 1% 100× penicillin-streptomycin that was replenished every 72 hours for 7 days to establish quiescence. On day 7, spinal astrocytes were co-cultivated with VZV-infected spinal astrocytes (40 pfu/mL) or mock-infected spinal astrocytes.

[2] = biological target: NK-1 receptors in the brain (Homo sapiens, UniProt P25103); details: occupies NK-1 receptors in the brain; cited from earlier work
Chain of NK-1 receptors in the brain (P25103 whole entry): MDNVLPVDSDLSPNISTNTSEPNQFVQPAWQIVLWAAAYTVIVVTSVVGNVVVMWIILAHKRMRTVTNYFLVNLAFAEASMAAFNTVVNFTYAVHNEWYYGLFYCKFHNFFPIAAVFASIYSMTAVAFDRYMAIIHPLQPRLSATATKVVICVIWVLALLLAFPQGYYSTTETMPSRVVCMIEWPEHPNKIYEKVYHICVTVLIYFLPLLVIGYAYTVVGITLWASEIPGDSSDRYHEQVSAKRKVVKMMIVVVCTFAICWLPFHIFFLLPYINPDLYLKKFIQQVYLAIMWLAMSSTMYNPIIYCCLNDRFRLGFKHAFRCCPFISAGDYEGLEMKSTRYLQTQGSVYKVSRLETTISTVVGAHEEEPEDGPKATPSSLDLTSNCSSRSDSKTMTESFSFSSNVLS

[3] = IV acyclovir; precipitation of aciclovir crystals in the kidney; cited from earlier work

SMILES: C[C@@H](O[C@H]1OCCN(Cc2n[nH]c(=O)[nH]2)[C@H]1c1ccc(F)cc1)c1cc(C(F)(F)F)cc(C(F)(F)F)c1 [aprepitant]
- optimal concentration to avoid cell death [1]: 10 µM
- blood-brain barrier crossing [2]: crosses the blood-brain barrier

SMILES: Nc1nc2c(ncn2COCCO)c(=O)[nH]1 [acyclovir]
- patients with reversible nephrotoxicity [3]: 5-10%
